IC50 and inhibition data for 20 compounds are collected here from patent US4579866A, “Phenylacetamides as anti-allergy, anti-asthma and anti-inflammatory agents” (USV Pharmaceutical Corp., priority 1984, dated 1986).

One experiment deals with LTC4. As to the kind of experiment: Antagonism of leukotriene C4 binding (guinea pig peripheral lung strips, contraction). It counts as cell-based. Conditions: Cavia porcellus, leukotriene C4 usually 0.2 nM, 37° C., read-out: ANTAGONISM OF LTC4 BINDING, I50. The protocol:
Protocol for Antagonism of Leukotrines C-4 Binding
Peripheral strips of guinea pig lungs are prepared and hung in tissue baths according to the procedure described by Drazen et al. (Proc. Nat'l. Acad. Sci., U.S.A. 77, 4354-4358, 1980). Male guinea pigs (Charles River, 250-400 g) are sacrificed by cervical dislocation and their lungs rapidly removed. The individual lobes are dissected free and rinsed in Assay Buffer (118 mM NaCl, 5.4 mM KCl, 2.5 mM CaCl2, 25 mM […], 1 mM MgSO4, 1 mM NaH2 PO4, 11 mM glucose) which is continuously aerated with 95% oxygen/5% carbon dioxide. After the lobes are extensively rinsed, a strip of lung tissue, approximately 2 mm thick and 5-8 cm long, is cut off the sharpest and most peripheral portion of each lobe. The peripheral edge is cut almost completely around the outside of the lobe so that a U-shaped strip is obtained. These strips are rinsed in Assay Buffer and then connected with surgical silk thread to the support rods of the water jacketed tissue baths (10 ml chambers). The other ends of the strips are connected to Gould UC3 pressure transducers which had been previously calibrated. The tissue baths are aerated with 95% oxygen/5% carbon dioxide and maintained at 37° C. The tension on these strips are adjusted to 500 mg. The tissues are initially washed with fresh buffer every 5-10 minutes for about 30 minutes and thereafter washed with fresh assay buffer at least every 20 minutes.
After the tissue had been repeatedly washed and allowed to equilibrate in the tissue baths, they are challenged with 1 μM histamine to standardize the contractions for each tissue.
Responses of each tissue to a predetermined concentration (usually 0.2 nM) of leukotriene C4 are then obtained. Compounds are then tested for their ability to antagonize to leukotriene C4 immediately upon challenge.
(§1) If the percentage of inhibition exceeds 50%, the compounds are then evaluated in terms of response over a range of concentrations. From a plot of response against concentration, the I50 value is obtained. The I50 value is the concentration at which 50% inhibition is observed.

The next experiment addresses T1, RAT 5-LIPOXYGENASE (Rattus norvegicus, UniProt P12527).
T1 construct: A suspension of rat neutrophils in buffer; endogenous in cells; host or cells: rat neutrophils (polymorphonuclear leukocytes)
T1 sequence (P12527 1-673): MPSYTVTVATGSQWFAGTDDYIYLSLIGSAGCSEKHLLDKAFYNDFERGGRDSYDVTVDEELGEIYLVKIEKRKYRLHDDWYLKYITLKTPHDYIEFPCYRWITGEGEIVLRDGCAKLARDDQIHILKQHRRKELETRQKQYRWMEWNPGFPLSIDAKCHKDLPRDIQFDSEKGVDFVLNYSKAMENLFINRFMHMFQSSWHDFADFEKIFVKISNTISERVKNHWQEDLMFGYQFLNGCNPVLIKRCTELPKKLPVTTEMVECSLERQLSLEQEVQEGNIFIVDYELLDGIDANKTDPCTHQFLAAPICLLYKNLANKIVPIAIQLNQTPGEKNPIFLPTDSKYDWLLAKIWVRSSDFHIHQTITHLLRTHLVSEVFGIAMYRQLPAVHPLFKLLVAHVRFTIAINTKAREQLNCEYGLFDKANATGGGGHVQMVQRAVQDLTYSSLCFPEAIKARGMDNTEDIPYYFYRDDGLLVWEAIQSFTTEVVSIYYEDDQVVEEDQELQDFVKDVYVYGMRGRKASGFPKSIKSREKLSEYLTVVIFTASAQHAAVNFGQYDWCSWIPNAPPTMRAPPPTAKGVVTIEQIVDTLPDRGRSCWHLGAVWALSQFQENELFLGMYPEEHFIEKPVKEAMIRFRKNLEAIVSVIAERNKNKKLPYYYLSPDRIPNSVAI
Briefly: Biosynthesis of 5-HETE by rat polymorphonuclear leukocytes in vitro (inhibition of rat 5-lipoxygenase). Type of experiment: cell-based. Conditions: rat neutrophils, A23187, 3 minutes at 30° C.; for IC50: concentration at which 50% inhibition is observed, read-out: INHIBITION OF RAT 5-LIPOXYGENASE, I50. The protocol: Protocol for the Biosynthesis of 5-HETE by Rat Polymorphonuclear Leukocytes In Vitro
A suspension of rat neutrophils in buffer is incubated for 3 minutes at 30° C. with [^14 C]-arachidonic acid (AA) and calcium ionophore A23187. Citric Acid (2M) NDGA (10 mM) is used to quench the reaction. Following the addition of a trace amount of (^3 H)-5-HETE together with an excess of unlabeled 5-HETE to each tube, the mixture is extracted with chloroform/methanol. The organic layer is washed with dilute acid and an aliquot is transferred to glass tubes and dried. The residue is dissolved in a small volume of chloroform and an aliquot is spotted on silica gel TLC sheets, which are developed with an ethyl acetate/isoctane/water/acetic acid solvent system. The 5-HETE spots are visualized under UV light, cut out and placed in scintillation vials for counting. After adjusting for the extraction efficiency, the amount (pmole) of [^14 C]-5-HETE in each of the tubes is quantitated. The net pmoles of 5-HETE are obtained by subtracting the pmoles of 5-HETE in the tubes containing buffer alone (blank) from the pmoles of 5-HETE in the tubes containing […]. The ability of the test compounds to modulate the activity of this enzyme is determined by a decrease or increase in the net amount of 5-HETE produced.
as §1

As to `COC(=O)[C@H](Cc1ccccc1)NC(=O)Cc1ccc(OCc2ccccc2)cc1` [4-Benzyloxyphenylacetyl-L-phenylalanine methyl ester], the IC50 with LTC4 worked out at 5 µM. Moreover, the inhibition (commonly the percentage by which the read-out fell short of the control) at 10 µM against RAT 5-LIPOXYGENASE turned out to be 29%. On the same counts, the results for `C=CCOc1ccc(CC(=O)N[C@@H](Cc2ccccc2)C(=O)OC)cc1Cl` [4-Allyloxy-3-chlorophenylacetyl-L-phenylalanine methyl ester] are 5 µM and 27%. Turning to `C=CCOc1ccc(CC(=O)N(C)CC(O)c2ccccc2)cc1Cl` (centres unmarked) [N--[4-Allyloxy-3-chlorophenylacetyl]-N--methyl-2-hydroxy-2-phenylethylamine], the IC50 amounted to 18 µM with LTC4 and 1.8 µM on RAT 5-LIPOXYGENASE. On the same counts, the results for `C=CCOc1ccc(CC(=O)N[C@H](Cc2ccccc2)C(=O)OC)cc1Cl` [4-Allyloxy-3-chlorophenylacetyl-D-phenylalanine methyl ester] are 9 µM and 0.7 µM. On the same counts, the results for `C=CCOc1ccc(CC(=O)N(CC(=O)OCC)Cc2ccccc2)cc1Cl` [4-Allyloxy-3-chlorophenylacetyl-N--benzylglycine ethyl ester] are 20 µM and 8 µM. Consider `COC(=O)[C@@H](Cc1ccccc1)NC(=O)Cc1ccc(OC)c(Cl)c1` [3-Chloro-4-methoxyphenylacetyl-D-phenylalanine methyl ester], for which the IC50 on RAT 5-LIPOXYGENASE worked out at 3.8 µM. In turn, `COc1ccc(CC(=O)N(C)CCc2ccccc2)cc1Cl` [N--[3-Chloro-4-methoxyphenylacetyl]-N--methyl-2-phenylethylamine] had an inhibition at 10 µM on RAT 5-LIPOXYGENASE of 33%. As to `C=CCOc1ccc(CC(=O)N(C)Cc2ccccc2)cc1Cl` [N--benzyl, N--methyl-3-chloro-4-allyloxy-phenylacetamide], at RAT 5-LIPOXYGENASE, the IC50 was found to be 20 µM. The compound `C=CCOc1ccc(CC(=O)N(CCO)Cc2ccccc2)cc1Cl` [N--benzyl, N--[2-hydroxyethyl]-3-chloro-4-allyloxyphenylacetamide] displayed an inhibition at 10 µM at RAT 5-LIPOXYGENASE of 41%. As to `C=CCOc1ccc(CC(=O)N(C)[C@H](C)[C@@H](O)c2ccccc2)cc1Cl` [4-Allyloxy-3-chlorophenylacetyl-(+)-ephedrine], at RAT 5-LIPOXYGENASE, the IC50 was found to be 15 µM. Regarding `C=CCOc1ccc(CC(=O)NC(Cc2ccc(Cl)cc2)C(=O)OC)cc1Cl` (racemic) [4-Allyloxy-3-chlorophenylacetyl-DL-p-chlorophenylalanine methyl ester], the IC50 in the experiment with LTC4 was found to be 9 µM. On RAT 5-LIPOXYGENASE, the inhibition at 10 µM amounted to 25%. As for `COC(=O)[C@@H](Cc1ccccc1)NC(=O)Cc1ccc(OCc2ccc3ccccc3n2)c(Cl)c1` [1-Chloro-4-[2-quinolinemethyloxy]-phenylacetyl-D-phenylalanine methyl ester], the inhibition at 10 µM at RAT 5-LIPOXYGENASE came out at 50%. For the compound `C=CCOc1ccc(CC(=O)NCC(O)c2ccccc2)cc1Cl` (centres unmarked) [N--[4-Allyloxy-3-chlorophenylacetyl]-2-hydroxy-2-phenylethylamine], the IC50 on RAT 5-LIPOXYGENASE came to 20 µM. As to `C=CCOc1ccc(CC(=O)N[C@H](CO)Cc2ccccc2)cc1Cl` [N--[4-Allyloxy-3-chlorophenylacetyl]-L-phenylalaninol], the IC50 with LTC4 amounted to 3 µM. At RAT 5-LIPOXYGENASE, testing at 10 µM gave an inhibition of 33%. As for `COC(=O)[C@H](Cc1ccccc1)NC(=O)c1ccc(OC2C=CCCC2)cc1` (stereo partly drawn) [4-[2-Cyclohexenyloxy]-benzoyl-L-phenylalanine methyl ester], at 10 µM the inhibition against RAT 5-LIPOXYGENASE was 33%.

`C=CCOc1ccc(C(=O)N[C@@H](Cc2ccccc2)C(=O)OC)cc1Cl` [4-Allyloxy-3-chlorobenzoyl-L-phenylalanine methyl ester]: the IC50 in the experiment on LTC4 stood at 15 µM. In addition, the inhibition at 10 µM on RAT 5-LIPOXYGENASE is 34%. For `C=CCOc1ccc(CC(=O)NCC(C)c2ccccc2)cc1Cl` (centres unmarked) [N--[4-Allyloxy-3-chlorophenylacetyl]-1-amino-2-phenylpropane], the IC50 in the experiment on LTC4 came out at 2.5 µM. Moreover, the inhibition at 10 µM against RAT 5-LIPOXYGENASE is 18%. `C=CCOc1ccc(CC(=O)NC(CO)C(O)c2ccccc2)cc1Cl` [N--[4-Allyloxy-3-chlorophenylacetyl]-3S-hydroxy-L-phenylalaninol] returned an inhibition at 10 µM against RAT 5-LIPOXYGENASE of 36%. On the same count and under the same terms, with `O=C(Cc1ccc(OCc2ccccc2)c(Cl)c1)N[C@H](Cc1ccccc1)C(=O)O` [4-Benzyloxy-3-chlorophenylacetyl-D-phenylalanine] the figure was 40%.

In the case of `C=CCOc1ccc(CC(=O)N(C)[C@@H](C)[C@H](O)c2ccccc2)cc1Cl` [4-Allyloxy-3-chlorophenylacetyl-(-)-ephedrine], the IC50 on RAT 5-LIPOXYGENASE is 30 µM.
